Experimental data published in ChEMBL document CHEMBL2406958, “Development of a chimeric c-Src kinase and HDAC inhibitor” (ACS Med Chem Lett, 2013).
Blank lines part the entries; values can stand above or below the compound they belong to.

Experiments:
[1] = molecular target: T1, Proto-oncogene tyrosine-protein kinase Src (Homo sapiens, UniProt P12931); test: Inhibition of c-Src (unknown origin) after 10 mins by fluorimetric assay
Histone deacetylase 1 [2] = molecular target: T2, Histone deacetylase 1 (Homo sapiens, UniProt Q13547); test: Inhibition of human recombinant HDAC1 using Ac-Leu-Gly-Lys(Ac)AMCA as substrate after 30 mins by fluorescence assay
MCF7 = test: Cytotoxicity against human MCF7 cells after 48 hrs by SRB assay; assay type: functional; conditions: MCF7, 48 h
Histone deacetylase 9 = Histone deacetylase 9 (Homo sapiens, UniProt Q9UKV0); test: Inhibition of HDAC9 (unknown origin) using Boc-Lys(trifluoroacetyl)-AMC as substrate by fluorescence assay
[3] = molecular target: Protein deacetylase HDAC6 (Homo sapiens, UniProt Q9UBN7); test: Inhibition of HDAC6 (unknown origin) using fluorogenic peptide from p53 residues (379 to 382) (RHKK(Ac)) as substrate by fluorescence assay
SK-BR-3 = test: Cytotoxicity against human SK-BR-3 cells after 72 hrs by WST1 assay; assay type: functional
Histone deacetylase 5 = Histone deacetylase 5 (Homo sapiens, UniProt Q9UQL6); test: Inhibition of HDAC5 (unknown origin) using Boc-Lys(trifluoroacetyl)-AMC as substrate by fluorescence assay
[4] = molecular target: Tyrosine-protein kinase HCK (Homo sapiens, UniProt P08631); test: Inhibition of HCK (unknown origin)
[5] = molecular target: Polyamine deacetylase HDAC10 (Homo sapiens, UniProt Q969S8); test: Inhibition of HDAC10 (unknown origin) using fluorogenic peptide from p53 residues (379 to 382) (RHKK(Ac)) as substrate by fluorescence assay
Histone deacetylase 8 = Histone deacetylase 8 (Homo sapiens, UniProt Q9BY41); test: Inhibition of HDAC8 (unknown origin) using fluorogenic peptide from p53 residues (379 to 382) (RHK(Ac)K(Ac)) as substrate by fluorescence assay
SW-620 = test: Cytotoxicity against human SW620 cells after 48 hrs by SRB assay; assay type: functional; conditions: SW-620, 48 h
Histone deacetylase 3 = Histone deacetylase 3 (Homo sapiens, UniProt O15379); test: Inhibition of HDAC3 (unknown origin) using fluorogenic peptide from p53 residues (379 to 382) (RHKK(Ac)) as substrate by fluorescence assay
Histone deacetylase 1 [6] = molecular target: T2, Histone deacetylase 1; test: Inhibition of HDAC1 (unknown origin) using fluorogenic peptide from p53 residues (379 to 382) (RHKK(Ac)) as substrate by fluorescence assay
[7] = molecular target: Tyrosine-protein kinase ABL1 (Homo sapiens, UniProt P00519); test: Inhibition of c-Abl (unknown origin)
Histone deacetylase 2 = Histone deacetylase 2 (Homo sapiens, UniProt Q92769)
DU-145 = test: Cytotoxicity against human DU145 cells after 48 hrs by SRB assay; assay type: functional; conditions: DU-145, 48 h
HMEC = test: Cytotoxicity against human HMEC after 72 hrs by WST1 assay; assay type: cell-based
KM12 = test: Cytotoxicity against human KM12 cells after 48 hrs by SRB assay; assay type: functional; conditions: KM12, 48 h
[8] = molecular target: T1, Proto-oncogene tyrosine-protein kinase Src; test: Inhibition of c-Src (unknown origin) by fluorescence assay
Histone deacetylase 1 [9] = molecular target: T2, Histone deacetylase 1; test: Inhibition of HDAC1 (unknown origin) by Fluor de Lys based assay
[10] = Cytotoxicity against human NCI60 cells after 48 hrs by SRB assay; assay type: functional; conditions: NCI60, 48 h
Malme-3M = test: Cytotoxicity against human MALME-3M cells after 48 hrs by SRB assay; assay type: functional
Hs-578T = test: Cytotoxicity against human Hs578T cells after 48 hrs by SRB assay; assay type: functional
Histone deacetylase 4 = Histone deacetylase 4 (Homo sapiens, UniProt P56524); test: Inhibition of HDAC4 (unknown origin) using Boc-Lys(trifluoroacetyl)-AMC as substrate by fluorescence assay
Histone deacetylase 11 = Histone deacetylase 11 (Homo sapiens, UniProt Q96DB2); test: Inhibition of HDAC11 (unknown origin) using fluorogenic peptide from p53 residues (379 to 382) (RHKK(Ac)) as substrate by fluorescence assay
HCT-116 = test: Cytotoxicity against human HCT116 cells after 48 hrs by SRB assay; assay type: functional; conditions: HCT-116, 48 h
U-251 = test: Cytotoxicity against human U251 cells after 48 hrs by SRB assay; assay type: functional; conditions: U-251, 48 h
MDA-MB-231 = test: Cytotoxicity against human MDA-MB-231 cells after 48 hrs by SRB assay; assay type: functional; conditions: MDA-MB-231, 48 h
[11] = Therapeutic index, ratio of GI50 for human HMEC to GI50 for human SK-BR-3 cells; conditions: HMEC cells versus SK-BR-3 cells, read-out: RatioGI50

T2 sequence (Q13547 whole entry): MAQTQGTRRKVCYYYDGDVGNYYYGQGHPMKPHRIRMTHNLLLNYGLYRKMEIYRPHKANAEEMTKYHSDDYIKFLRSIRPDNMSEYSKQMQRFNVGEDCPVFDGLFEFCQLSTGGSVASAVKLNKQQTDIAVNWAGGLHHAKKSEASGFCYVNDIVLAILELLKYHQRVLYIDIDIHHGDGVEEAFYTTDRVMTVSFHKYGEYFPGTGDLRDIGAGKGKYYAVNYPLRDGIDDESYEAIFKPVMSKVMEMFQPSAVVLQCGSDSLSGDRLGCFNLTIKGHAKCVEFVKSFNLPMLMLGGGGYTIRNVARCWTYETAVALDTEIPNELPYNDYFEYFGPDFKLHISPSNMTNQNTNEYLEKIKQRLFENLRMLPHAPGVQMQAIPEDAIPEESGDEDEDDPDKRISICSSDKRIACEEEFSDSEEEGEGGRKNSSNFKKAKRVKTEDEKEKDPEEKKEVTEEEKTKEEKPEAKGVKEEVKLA
T1 sequence (P12931 2-536 limits assumed): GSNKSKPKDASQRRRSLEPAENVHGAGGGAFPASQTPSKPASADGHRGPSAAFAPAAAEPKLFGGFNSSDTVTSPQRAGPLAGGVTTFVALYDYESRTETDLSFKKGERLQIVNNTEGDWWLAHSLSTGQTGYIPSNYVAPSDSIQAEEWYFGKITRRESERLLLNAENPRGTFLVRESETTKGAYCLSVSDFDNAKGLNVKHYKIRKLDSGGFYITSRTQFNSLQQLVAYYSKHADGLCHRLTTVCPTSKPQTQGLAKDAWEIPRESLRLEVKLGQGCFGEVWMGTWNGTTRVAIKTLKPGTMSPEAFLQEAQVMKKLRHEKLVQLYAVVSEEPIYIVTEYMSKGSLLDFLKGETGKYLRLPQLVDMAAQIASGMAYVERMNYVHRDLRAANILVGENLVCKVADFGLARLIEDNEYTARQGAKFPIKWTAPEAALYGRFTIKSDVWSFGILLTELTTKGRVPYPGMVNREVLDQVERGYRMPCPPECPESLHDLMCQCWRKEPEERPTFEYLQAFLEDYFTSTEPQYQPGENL
Chain of Histone deacetylase 2 (Q92769 whole entry): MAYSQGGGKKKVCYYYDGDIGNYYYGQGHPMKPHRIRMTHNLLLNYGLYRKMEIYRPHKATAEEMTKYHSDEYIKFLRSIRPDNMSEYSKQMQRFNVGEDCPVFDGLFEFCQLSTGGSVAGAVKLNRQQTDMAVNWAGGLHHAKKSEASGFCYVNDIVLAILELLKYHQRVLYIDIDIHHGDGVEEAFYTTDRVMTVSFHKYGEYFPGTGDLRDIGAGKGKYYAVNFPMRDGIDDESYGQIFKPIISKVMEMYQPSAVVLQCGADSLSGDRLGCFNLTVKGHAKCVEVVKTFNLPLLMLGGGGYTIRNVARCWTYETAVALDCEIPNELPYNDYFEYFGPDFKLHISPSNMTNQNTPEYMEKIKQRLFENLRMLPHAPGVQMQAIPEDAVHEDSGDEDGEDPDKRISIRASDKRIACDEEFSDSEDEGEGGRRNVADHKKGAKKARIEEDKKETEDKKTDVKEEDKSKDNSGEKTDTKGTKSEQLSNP
Chain of Histone deacetylase 9 (Q9UKV0 whole entry, the tested form may be a part): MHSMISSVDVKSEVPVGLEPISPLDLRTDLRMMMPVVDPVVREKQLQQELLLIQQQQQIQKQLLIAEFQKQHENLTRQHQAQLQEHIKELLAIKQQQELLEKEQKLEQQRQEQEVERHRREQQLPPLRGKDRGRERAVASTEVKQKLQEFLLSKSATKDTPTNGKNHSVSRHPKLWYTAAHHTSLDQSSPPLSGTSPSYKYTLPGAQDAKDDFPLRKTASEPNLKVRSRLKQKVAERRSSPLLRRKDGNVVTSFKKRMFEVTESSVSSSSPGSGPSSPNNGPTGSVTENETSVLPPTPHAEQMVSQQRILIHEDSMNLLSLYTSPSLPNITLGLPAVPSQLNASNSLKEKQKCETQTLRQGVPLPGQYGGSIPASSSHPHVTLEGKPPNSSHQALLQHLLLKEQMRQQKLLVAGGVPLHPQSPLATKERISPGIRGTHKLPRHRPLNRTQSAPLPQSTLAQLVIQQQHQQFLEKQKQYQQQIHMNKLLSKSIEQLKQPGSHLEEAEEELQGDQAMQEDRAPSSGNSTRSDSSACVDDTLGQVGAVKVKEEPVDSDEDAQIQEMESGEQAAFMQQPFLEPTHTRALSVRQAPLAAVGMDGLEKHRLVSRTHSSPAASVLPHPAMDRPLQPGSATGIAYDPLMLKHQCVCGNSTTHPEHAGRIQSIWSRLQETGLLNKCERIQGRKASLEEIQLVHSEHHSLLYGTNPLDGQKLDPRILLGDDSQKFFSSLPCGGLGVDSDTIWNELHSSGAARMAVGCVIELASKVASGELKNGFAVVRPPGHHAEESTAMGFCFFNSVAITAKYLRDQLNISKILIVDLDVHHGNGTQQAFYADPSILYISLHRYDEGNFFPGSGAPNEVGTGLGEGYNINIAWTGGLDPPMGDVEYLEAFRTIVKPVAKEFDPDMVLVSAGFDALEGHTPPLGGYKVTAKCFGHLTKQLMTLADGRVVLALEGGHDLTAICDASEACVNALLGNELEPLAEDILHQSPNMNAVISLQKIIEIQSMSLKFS
Chain of Tyrosine-protein kinase HCK (P08631 whole entry, the tested form may be a part): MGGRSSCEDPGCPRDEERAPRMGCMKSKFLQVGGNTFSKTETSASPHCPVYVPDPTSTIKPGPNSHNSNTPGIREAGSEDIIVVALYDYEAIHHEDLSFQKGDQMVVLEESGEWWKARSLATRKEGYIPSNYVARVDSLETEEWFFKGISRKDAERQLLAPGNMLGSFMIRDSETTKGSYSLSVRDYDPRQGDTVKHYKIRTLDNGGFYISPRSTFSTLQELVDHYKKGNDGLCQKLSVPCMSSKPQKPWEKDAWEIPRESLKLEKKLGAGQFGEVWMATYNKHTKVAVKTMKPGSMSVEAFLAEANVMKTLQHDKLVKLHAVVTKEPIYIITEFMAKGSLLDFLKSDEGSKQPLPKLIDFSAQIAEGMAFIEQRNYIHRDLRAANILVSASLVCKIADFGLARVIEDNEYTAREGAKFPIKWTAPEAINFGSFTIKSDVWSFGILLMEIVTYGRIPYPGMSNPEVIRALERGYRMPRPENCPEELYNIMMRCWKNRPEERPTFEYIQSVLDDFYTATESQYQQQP
Chain of Histone deacetylase 11 (Q96DB2 whole entry, the tested form may be a part): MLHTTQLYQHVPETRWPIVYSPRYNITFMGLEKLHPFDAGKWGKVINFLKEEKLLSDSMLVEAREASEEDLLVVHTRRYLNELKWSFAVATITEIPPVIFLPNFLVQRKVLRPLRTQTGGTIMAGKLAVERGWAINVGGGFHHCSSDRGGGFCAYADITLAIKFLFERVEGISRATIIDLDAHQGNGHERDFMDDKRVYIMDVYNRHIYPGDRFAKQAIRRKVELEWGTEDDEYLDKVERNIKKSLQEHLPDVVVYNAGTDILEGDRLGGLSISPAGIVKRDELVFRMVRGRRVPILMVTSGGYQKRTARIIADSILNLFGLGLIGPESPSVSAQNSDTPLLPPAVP
Chain of Histone deacetylase 8 (Q9BY41 whole entry, the tested form may be a part): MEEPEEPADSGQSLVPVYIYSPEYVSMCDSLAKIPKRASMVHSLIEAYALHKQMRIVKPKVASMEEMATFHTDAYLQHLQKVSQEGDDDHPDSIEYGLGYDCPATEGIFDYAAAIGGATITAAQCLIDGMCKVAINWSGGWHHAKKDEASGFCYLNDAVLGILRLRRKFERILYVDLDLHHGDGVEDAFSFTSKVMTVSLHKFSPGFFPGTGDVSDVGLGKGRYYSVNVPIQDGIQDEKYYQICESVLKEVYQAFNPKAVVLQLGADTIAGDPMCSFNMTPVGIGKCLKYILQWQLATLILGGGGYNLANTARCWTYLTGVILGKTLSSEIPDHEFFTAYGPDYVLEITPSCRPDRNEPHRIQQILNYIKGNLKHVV
Chain of Histone deacetylase 4 (P56524 whole entry, the tested form may be a part): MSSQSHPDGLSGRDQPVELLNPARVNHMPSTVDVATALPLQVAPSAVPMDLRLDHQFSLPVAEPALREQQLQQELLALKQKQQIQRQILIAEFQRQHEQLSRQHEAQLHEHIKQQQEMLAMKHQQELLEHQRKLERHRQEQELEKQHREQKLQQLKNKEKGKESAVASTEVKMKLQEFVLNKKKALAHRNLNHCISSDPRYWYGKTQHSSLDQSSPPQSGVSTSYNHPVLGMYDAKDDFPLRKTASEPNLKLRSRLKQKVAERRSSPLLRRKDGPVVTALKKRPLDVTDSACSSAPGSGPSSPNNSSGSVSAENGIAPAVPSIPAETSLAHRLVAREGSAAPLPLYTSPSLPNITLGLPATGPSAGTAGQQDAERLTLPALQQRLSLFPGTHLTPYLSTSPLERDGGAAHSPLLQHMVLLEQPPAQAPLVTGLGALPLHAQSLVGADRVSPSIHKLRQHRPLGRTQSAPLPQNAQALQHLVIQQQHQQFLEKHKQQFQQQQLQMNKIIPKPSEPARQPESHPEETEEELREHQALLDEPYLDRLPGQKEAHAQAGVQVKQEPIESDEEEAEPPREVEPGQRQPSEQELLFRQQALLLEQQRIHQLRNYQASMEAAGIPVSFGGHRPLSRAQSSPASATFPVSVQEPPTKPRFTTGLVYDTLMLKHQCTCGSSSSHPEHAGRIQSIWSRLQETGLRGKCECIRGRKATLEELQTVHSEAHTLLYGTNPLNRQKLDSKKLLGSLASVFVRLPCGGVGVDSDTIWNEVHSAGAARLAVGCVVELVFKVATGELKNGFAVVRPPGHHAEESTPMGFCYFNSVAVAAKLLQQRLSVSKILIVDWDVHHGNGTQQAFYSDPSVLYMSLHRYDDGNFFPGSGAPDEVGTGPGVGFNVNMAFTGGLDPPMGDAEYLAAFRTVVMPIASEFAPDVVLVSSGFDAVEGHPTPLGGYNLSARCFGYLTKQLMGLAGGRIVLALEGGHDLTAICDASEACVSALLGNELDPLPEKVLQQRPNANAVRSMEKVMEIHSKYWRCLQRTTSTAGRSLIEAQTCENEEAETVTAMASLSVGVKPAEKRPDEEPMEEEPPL

Structure (SMILES): Nc1ncnc2c1c(-c1ccc(Cl)cc1)nn2-c1cccc(-c2cnnn2Cc2ccc(/C=C/C(=O)NO)cc2)c1
- Ki [1]: 4300 nM
- Ki (Histone deacetylase 1 [2]): 35 nM

Structure (SMILES): O=C(CCCCCn1nncc1-c1ccccc1)NO
- Ki (Histone deacetylase 1 [9]): 45 nM

Structure (SMILES): Nc1ncnc2c1c(-c1ccc(Cl)cc1)nn2-c1ccccc1
- Ki [8]: 605 nM

Structure (SMILES): Nc1ncnc2c1c(-c1ccc(Cl)cc1)nn2-c1cccc(-c2cnnn2Cc2cccc(/C=C/C(=O)NO)c2)c1
- Ki (Histone deacetylase 1 [2]): 23 nM

Structure (SMILES): Cc1nc(Nc2ncc(C(=O)Nc3c(C)cccc3Cl)s2)cc(N2CCN(CCO)CC2)n1 [DASATINIB]
- GI50 (MCF7): 8320 nM
- GI50 (SW-620): 8430 nM
- GI50 (DU-145): 160 nM
- GI50 (HMEC): 1800 nM
- GI50 [10]: 5700 nM
- GI50 (Malme-3M): 6610 nM
- GI50 (Hs-578T): 30 nM
- GI50 (HCT-116): 3700 nM
- GI50 (U-251): 2810 nM
- GI50 (MDA-MB-231): 20 nM

Structure (SMILES): Nc1ncnc2c1c(-c1ccc(Cl)cc1)nn2-c1cccc(-c2cnnn2Cc2cccc(-c3ccccc3)c2)c1
- GI50 (SK-BR-3; Homo sapiens, SK-BR-3, 72 h): 4800 nM
- GI50 (HMEC): 4300 nM
- selectivity ratio [11]: 0.9

Structure (SMILES): O=C(CCCCCCC(=O)Nc1ccccc1)NO [VORINOSTAT]
- GI50 (SK-BR-3): 1200 nM
- GI50 (HMEC): 5800 nM

Further lines, with some results ahead:

- Ki [1]: 190 nM
- Ki (Histone deacetylase 1 [2]): 0.82 nM
Structure (SMILES): Nc1ncnc2c1c(-c1ccc(Cl)cc1)nn2-c1cccc(-c2cnnn2CCCCCCC(=O)NO)c1

- IC50 (Histone deacetylase 9): 28000 nM
- IC50 [3]: 2.7 nM
- IC50 (Histone deacetylase 5): 3890 nM
- Ki [4]: 504 nM
- IC50 [5]: 51 nM
- IC50 (Histone deacetylase 8): 2310 nM
- Ki [1]: 138 nM
- IC50 (Histone deacetylase 3): 19 nM
- Ki (Histone deacetylase 1 [2]): 0.26 nM
- IC50 (Histone deacetylase 1 [6]): 86 nM
- Ki [7]: 2350 nM
- IC50 (Histone deacetylase 2): 231 nM
- Ki [8]: 138 nM
- Ki (Histone deacetylase 1 [9]): 0.26 nM
- IC50 (Histone deacetylase 4): 3980 nM
- IC50 (Histone deacetylase 11): 224 nM
Structure (SMILES): Nc1ncnc2c1c(-c1ccc(Cl)cc1)nn2-c1cccc(-c2cnnn2CCCCCC(=O)NO)c1
- GI50 (MCF7): 350 nM
- GI50 (SK-BR-3; Homo sapiens, SK-BR-3, 72 h): 200 nM
- GI50 (SW-620): 250 nM
- GI50 (DU-145): 390 nM
- GI50 (HMEC): 4700 nM
- GI50 (KM12): 470 nM
- GI50 [10]: 260 nM
- GI50 (Malme-3M): 70 nM
- GI50 (Hs-578T): 170 nM
- GI50 (HCT-116): 220 nM
- GI50 (U-251): 280 nM
- GI50 (MDA-MB-231): 390 nM

- Ki (Histone deacetylase 1 [2]): 9.8 nM
Structure (SMILES): Nc1ncnc2c1c(-c1ccc(Cl)cc1)nn2-c1cccc(-c2cnnn2CCCCCCCC(=O)NO)c1

- Ki [8]: 371 nM
- Ki (Histone deacetylase 1 [9]): 0.62 nM
Structure (SMILES): Nc1ncnc2c1c(-c1ccc(Cl)cc1)nn2-c1cccc(-c2cn(CCCCCC(=O)NO)nn2)c1
